From the supplement of paper PMC10307832

Legend:
Test in all cases: relative viability (nuclei count vs DMSO), 5 days (fraction); higher = more cells survive
[1] = test system: UMC-11
Summary of the method: (§1)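 Five library-drug doses in √10 steps were combined with a fixed anchor-drug dose, or a single drug was given alone, by pin tool to lung cancer cell lines in 1536-well plates the day after seeding. Nuclei were stained and counted after 5 days. Relative viability is the nuclei count in treated wells over that in vehicle wells, taken as the median of duplicate plates.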

[2] = test system: NCI-H2009
Summary of the method: as §1

[3] = test system: NCI-H1650
Summary of the method: as §1

[4] = test system: A-427
Summary of the method: as §1

[5] = test system: NCI-H1734
Summary of the method: as §1

[6] = test system: LK-2
Summary of the method: as §1

[7] = test system: CAL-12T
Summary of the method: as §1

[8] = test system: NCI-H1648
Summary of the method: as §1

CC(=O)O[C@@]12CO[C@@H]1C[C@H](O)[C@@]1(C)C(=O)[C@H](O)C3=C(C)[C@@H](OC(=O)[C@H](O)[C@@H](NC(=O)OC(C)(C)C)c4ccccc4)C[C@@](O)([C@@H](OC(=O)c4ccccc4)[C@H]21)C3(C)C [Docetaxel] + CC(=O)c1c(C)c2cnc(Nc3ccc(N4CCNCC4)cn3)nc2n(C2CCCC2)c1=O [Palbociclib] (partner 0.5 µM)
relative viability ([1]; first compound 0.0002 µM): 0.322 | relative viability ([1]; first compound 0.000632 µM): 0.357 | relative viability ([1]; first compound 0.002 µM): 0.294 | relative viability ([1]; first compound 0.006325 µM): 0.266 | relative viability ([1]; first compound 0.02 µM): 0.234 | relative viability ([2]; first compound 0.0002 µM): 0.135 | relative viability ([2]; first compound 0.000632 µM): 0.234 | relative viability ([2]; first compound 0.002 µM): 0.192 | relative viability ([2]; first compound 0.006325 µM): 0.202 | relative viability ([2]; first compound 0.02 µM): 0.127 | relative viability ([3]; first compound 0.0002 µM): 0.257 | relative viability ([3]; first compound 0.000632 µM): 0.263 | relative viability ([3]; first compound 0.002 µM): 0.207 | relative viability ([3]; first compound 0.006325 µM): 0.216 | relative viability ([3]; first compound 0.02 µM): 0.138 | relative viability ([4]; first compound 0.0002 µM): 0.522 | relative viability ([4]; first compound 0.000632 µM): 0.505 | relative viability ([4]; first compound 0.002 µM): 0.507 | relative viability ([4]; first compound 0.006325 µM): 0.372 | relative viability ([4]; first compound 0.02 µM): 0.241 | relative viability ([5]; first compound 0.0002 µM): 0.321 | relative viability ([5]; first compound 0.000632 µM): 0.336 | relative viability ([5]; first compound 0.002 µM): 0.281 | relative viability ([5]; first compound 0.006325 µM): 0.314 | relative viability ([5]; first compound 0.02 µM): 0.23 | relative viability ([6]; first compound 0.0002 µM): 0.507 | relative viability ([6]; first compound 0.000632 µM): 0.411 | relative viability ([6]; first compound 0.002 µM): 0.18 | relative viability ([6]; first compound 0.006325 µM): 0.108 | relative viability ([6]; first compound 0.02 µM): 0.0873 | relative viability ([7]; first compound 0.0002 µM): 0.251 | relative viability ([7]; first compound 0.000632 µM): 0.282 | relative viability ([7]; first compound 0.002 µM): 0.192 | relative viability ([7]; first compound 0.006325 µM): 0.198 | relative viability ([7]; first compound 0.02 µM): 0.105 | relative viability ([8]; first compound 0.0002 µM): 0.265 | relative viability ([8]; first compound 0.000632 µM): 0.26 | relative viability ([8]; first compound 0.002 µM): 0.271 | relative viability ([8]; first compound 0.006325 µM): 0.249 | relative viability ([8]; first compound 0.02 µM): 0.247

Cc1sc2c(c1C)C(c1ccc(Cl)cc1)=N[C@@H](CC(=O)OC(C)(C)C)c1nnc(C)n1-2 [JQ1] + CC(=O)c1c(C)c2cnc(Nc3ccc(N4CCNCC4)cn3)nc2n(C2CCCC2)c1=O [Palbociclib] (partner 0.5 µM)
relative viability ([1]; first compound 0.04 µM): 0.292 | relative viability ([1]; first compound 0.1265 µM): 0.226 | relative viability ([1]; first compound 0.4 µM): 0.227 | relative viability ([1]; first compound 1.265 µM): 0.257 | relative viability ([1]; first compound 4 µM): 0.184 | relative viability ([2]; first compound 0.04 µM): 0.181 | relative viability ([2]; first compound 0.1265 µM): 0.137 | relative viability ([2]; first compound 0.4 µM): 0.199 | relative viability ([2]; first compound 1.265 µM): 0.158 | relative viability ([2]; first compound 4 µM): 0.156 | relative viability ([3]; first compound 0.04 µM): 0.322 | relative viability ([3]; first compound 0.1265 µM): 0.264 | relative viability ([3]; first compound 0.4 µM): 0.256 | relative viability ([3]; first compound 1.265 µM): 0.111 | relative viability ([3]; first compound 4 µM): 0.134 | relative viability ([4]; first compound 0.04 µM): 0.524 | relative viability ([4]; first compound 0.1265 µM): 0.493 | relative viability ([4]; first compound 0.4 µM): 0.457 | relative viability ([4]; first compound 1.265 µM): 0.445 | relative viability ([4]; first compound 4 µM): 0.375 | relative viability ([5]; first compound 0.04 µM): 0.365 | relative viability ([5]; first compound 0.1265 µM): 0.334 | relative viability ([5]; first compound 0.4 µM): 0.313 | relative viability ([5]; first compound 1.265 µM): 0.279 | relative viability ([5]; first compound 4 µM): 0.303 | relative viability ([6]; first compound 0.04 µM): 0.718 | relative viability ([6]; first compound 0.1265 µM): 0.702 | relative viability ([6]; first compound 0.4 µM): 0.339 | relative viability ([6]; first compound 1.265 µM): 0.151 | relative viability ([6]; first compound 4 µM): 0.151 | relative viability ([7]; first compound 0.04 µM): 0.413 | relative viability ([7]; first compound 0.1265 µM): 0.377 | relative viability ([7]; first compound 0.4 µM): 0.226 | relative viability ([7]; first compound 1.265 µM): 0.114 | relative viability ([7]; first compound 4 µM): 0.233 | relative viability ([8]; first compound 0.04 µM): 0.259 | relative viability ([8]; first compound 0.1265 µM): 0.303 | relative viability ([8]; first compound 0.4 µM): 0.332 | relative viability ([8]; first compound 1.265 µM): 0.358 | relative viability ([8]; first compound 4 µM): 0.309

Nc1ccn([C@@H]2O[C@H](CO)[C@@H](O)[C@@H]2O)c(=O)n1 [Cytarabine] + CC(=O)c1c(C)c2cnc(Nc3ccc(N4CCNCC4)cn3)nc2n(C2CCCC2)c1=O [Palbociclib] (partner 0.5 µM)
relative viability ([1]; first compound 0.005 µM): 0.371 | relative viability ([1]; first compound 0.01581 µM): 0.304 | relative viability ([1]; first compound 0.05 µM): 0.263 | relative viability ([1]; first compound 0.1581 µM): 0.236 | relative viability ([1]; first compound 0.5 µM): 0.219 | relative viability ([2]; first compound 0.005 µM): 0.211 | relative viability ([2]; first compound 0.01581 µM): 0.192 | relative viability ([2]; first compound 0.05 µM): 0.187 | relative viability ([2]; first compound 0.1581 µM): 0.154 | relative viability ([2]; first compound 0.5 µM): 0.125 | relative viability ([3]; first compound 0.005 µM): 0.317 | relative viability ([3]; first compound 0.01581 µM): 0.319 | relative viability ([3]; first compound 0.05 µM): 0.318 | relative viability ([3]; first compound 0.1581 µM): 0.163 | relative viability ([3]; first compound 0.5 µM): 0.186 | relative viability ([4]; first compound 0.005 µM): 0.437 | relative viability ([4]; first compound 0.01581 µM): 0.474 | relative viability ([4]; first compound 0.05 µM): 0.363 | relative viability ([4]; first compound 0.1581 µM): 0.281 | relative viability ([4]; first compound 0.5 µM): 0.273 | relative viability ([5]; first compound 0.005 µM): 0.305 | relative viability ([5]; first compound 0.01581 µM): 0.214 | relative viability ([5]; first compound 0.05 µM): 0.237 | relative viability ([5]; first compound 0.1581 µM): 0.153 | relative viability ([5]; first compound 0.5 µM): 0.155 | relative viability ([6]; first compound 0.005 µM): 0.634 | relative viability ([6]; first compound 0.01581 µM): 0.267 | relative viability ([6]; first compound 0.05 µM): 0.233 | relative viability ([6]; first compound 0.1581 µM): 0.14 | relative viability ([6]; first compound 0.5 µM): 0.107 | relative viability ([7]; first compound 0.005 µM): 0.341 | relative viability ([7]; first compound 0.01581 µM): 0.389 | relative viability ([7]; first compound 0.05 µM): 0.421 | relative viability ([7]; first compound 0.1581 µM): 0.193 | relative viability ([7]; first compound 0.5 µM): 0.146 | relative viability ([8]; first compound 0.005 µM): 0.29 | relative viability ([8]; first compound 0.01581 µM): 0.283 | relative viability ([8]; first compound 0.05 µM): 0.263 | relative viability ([8]; first compound 0.1581 µM): 0.308 | relative viability ([8]; first compound 0.5 µM): 0.273
